According to patent publication US12097241B2, “Methods of treating kidney failure, and/or improving or stablizing renal function using modified relaxin polypeptides” (BRISTOL-MYERS SQUIBB COMPANY, priority 2017, dated 2024):

What was measured:
human RXFP1 receptor = biological target: T1, human RXFP1 receptor (Homo sapiens, UniProt Q9HBX9); assay: Intracellular cAMP accumulation assay; format: cell-based
T1 construct: expressed in transfected cells
T1 sequence (Q9HBX9 1-757): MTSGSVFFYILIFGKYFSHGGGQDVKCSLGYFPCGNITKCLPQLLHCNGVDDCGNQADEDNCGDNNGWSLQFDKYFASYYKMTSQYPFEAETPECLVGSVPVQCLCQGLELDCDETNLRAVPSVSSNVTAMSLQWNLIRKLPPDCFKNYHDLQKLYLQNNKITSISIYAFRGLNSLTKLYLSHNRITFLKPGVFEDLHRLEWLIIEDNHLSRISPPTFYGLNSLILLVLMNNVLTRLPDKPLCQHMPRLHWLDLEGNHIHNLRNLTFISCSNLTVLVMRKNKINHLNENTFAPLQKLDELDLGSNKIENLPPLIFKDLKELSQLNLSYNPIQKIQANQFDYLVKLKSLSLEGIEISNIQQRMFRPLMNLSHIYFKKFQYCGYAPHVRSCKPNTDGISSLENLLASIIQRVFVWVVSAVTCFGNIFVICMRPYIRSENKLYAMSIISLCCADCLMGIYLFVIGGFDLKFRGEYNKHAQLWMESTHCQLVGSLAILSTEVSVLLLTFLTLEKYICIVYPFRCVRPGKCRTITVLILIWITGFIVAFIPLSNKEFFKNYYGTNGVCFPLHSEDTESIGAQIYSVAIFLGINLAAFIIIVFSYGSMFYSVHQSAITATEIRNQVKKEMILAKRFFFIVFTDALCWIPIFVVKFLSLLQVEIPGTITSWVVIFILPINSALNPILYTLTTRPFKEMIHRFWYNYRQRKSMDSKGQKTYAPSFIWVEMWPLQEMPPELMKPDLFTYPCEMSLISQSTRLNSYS

[1] = In vivo pharmacokinetic (PK) studies in rats; design: species or system Sprague-Dawley rats; details: rat, male Sprague-Dawley rats, single SC dose 1.0 mg/kg, serum ELISA
Procedure: […] Blood samples were collected via jugular vein at different time points out to 72 hours. Blood samples were allowed to coagulate at room temperature (30-60 m) and then centrifuged (1500-2000) at 4° C. to obtain serum. After centrifugation serum samples were transferred to 96 well plates and stored at −80° C. until bioanalysis. Relaxin concentrations were measured from serum by ELISA.
Relaxin concentration-time profiles from individual animals were used for analysis. Pharmacokinetic parameters were calculated by non-compartmental methods using Phoenix WinNonlin (version 6.4) or Kinetica (version 5). Mean pharmacokinetic parameters Cmax, AUCinf, C24 and half-life were reported (Table 4). Table 4. In vivo PK data (abbreviations as in Table 3).

| Structure (SMILES) | EC50 (human RXFP1 receptor) [nM] | AUC(0-inf) ([1]; read-out: Rat PK AUC Total) [µM·h] | level at time molar at 24 h ([1]; read-out: Rat PK C24) [nM] |
| --- | --- | --- | --- |
| CCCCCCCCCCCCCCC(=O)NCC(=O)NCC(=O)NCC(=O)N[C@@H](CCC(=O)O)C(=O)N[C@@H](CCC(=O)O)C(=O)N1CCC[C@H]1C(=O)N[C@@H](CCC(=O)O)C(=O)N[C@@H](CCC(=O)O)C(=O)N[C@@H](CCC(=O)O)C(=O)N[C@@H](CCC(=O)O)C(=O)N1CCC[C@H]1C(=O)N[C@@H](CCC(=O)O)C(=O)N[C@@H](CCC(=O)O)C(=O)N[C@@H](CCC(=O)O)C(=O)N[C@@H](CCC(=O)O)C(=O)N1CCC[C@H]1C(=O)N[C@@H](CCC(=O)O)C(=O)N[C@@H](CCC(=O)O)C(=O)N[C@@H](CCC(=O)O)C(=O)N[C@@H](CCC(=O)O)C(=O)NCCON=C(C)c1ccc(C[C@H](N)C(=O)N[C@@H](CC(C)C)C(=O)N[C@@H](Cc2ccc(O)cc2)C(=O)N[C@@H](CO)C(=O)N[C@@H](C)C(=O)N[C@@H](CC(C)C)C(=O)N[C@@H](C)C(=O)N[C@@H](CC(N)=O)C(=O)N[C@@H](CCCCN)C(=O)N[C@H]2CSSC[C@@H]3NC(=O)CNC(=O)[C@H](C(C)C)NC(=O)[C@H](Cc4c[nH]cn4)NC(=O)[C@H](CSSC[C@H](NC(=O)[C@H](CC(C)C)NC(=O)[C@H](CCCCN)NC(=O)[C@@H](NC(=O)[C@@H](NC(=O)[C@H](CCC(=O)O)NC(=O)[C@H](CCC(=O)O)NC(=O)[C@H](CCSC)NC(=O)[C@H](Cc4c[nH]c5ccccc45)NC(=O)[C@H](CO)NC(=O)[C@H](C)N)C(C)C)[C@@H](C)CC)C(=O)NCC(=O)N[C@@H](CCCNC(=N)N)C(=O)N[C@@H](CCC(=O)O)C(=O)N[C@@H](CC(C)C)C(=O)N[C@@H](C(C)C)C(=O)N[C@@H](CCCNC(=N)N)C(=O)N[C@@H](C)C(=O)N[C@@H](CCC(N)=O)C(=O)N[C@@H]([C@@H](C)CC)C(=O)N[C@@H](C)C(=O)N[C@@H]([C@@H](C)CC)C(=O)N[C@H](C(=O)NCC(=O)N[C@@H](CCSC)C(=O)N[C@@H](CO)C(=O)N[C@H](C(=O)N[C@@H](Cc4c[nH]c5ccccc45)C(=O)N[C@@H](CO)C(=O)O)[C@@H](C)O)CSSC[C@@H](C(=O)O)NC(=O)[C@H](Cc4ccccc4)NC(=O)[C@H](CCCNC(=N)N)NC(=O)[C@H](C)NC(=O)[C@H](CC(C)C)NC(=O)[C@H](CO)NC(=O)[C@H](CCCNC(=N)N)NC(=O)[C@H](CCCCN)NC(=O)[C@H]([C@@H](C)O)NC3=O)NC2=O)cc1 | 0.16 |  |  |
| CC[C@H](C)[C@@H]1NC(=O)[C@H](C)NC(=O)[C@H]([C@@H](C)CC)NC(=O)[C@H](CCC(N)=O)NC(=O)[C@H](C)NC(=O)[C@H](CCCNC(=N)N)NC(=O)[C@H](C(C)C)NC(=O)[C@H](CC(C)C)NC(=O)[C@H](CCC(=O)O)NC(=O)[C@H](CCCNC(=N)N)NC(=O)CNC(=O)[C@@H](NC(=O)[C@H](CC(C)C)NC(=O)[C@H](CCCCN)NC(=O)[C@@H](NC(=O)[C@@H](NC(=O)[C@H](CCC(=O)O)NC(=O)[C@H](CCC(=O)O)NC(=O)[C@H](CCSC)NC(=O)[C@H](Cc2c[nH]c3ccccc23)NC(=O)[C@H](CO)NC(=O)[C@H](C)N)C(C)C)[C@@H](C)CC)CSSC[C@@H]2NC(=O)[C@@H](NC(=O)[C@H](CCCCN)NC(=O)[C@H](CC(N)=O)NC(=O)[C@H](C)NC(=O)[C@H](CC(C)C)NC(=O)[C@H](C)NC(=O)[C@H](CO)NC(=O)[C@H](Cc3ccc(O)cc3)NC(=O)[C@H](CC(C)C)NC(=O)[C@@H](N)Cc3ccc(/C(C)=N/OCCNC(=O)CN(C)C(=O)CN(C)C(=O)CN(C)C(=O)CN(C)C(=O)[C@H](CO)NC(=O)CN(C)C(=O)CN(C)C(=O)CN(C)C(=O)CN(C)C(=O)CC[C@H](NC(=O)CCCCCCCCCCCCC(=O)O)C(=O)O)cc3)CSSC[C@H](NC(=O)CNC(=O)[C@H](C(C)C)NC(=O)[C@H](Cc3c[nH]cn3)NC2=O)C(=O)N[C@@H]([C@@H](C)O)C(=O)N[C@@H](CCCCN)C(=O)N[C@@H](CCCNC(=N)N)C(=O)N[C@@H](CO)C(=O)N[C@@H](CC(C)C)C(=O)N[C@@H](C)C(=O)N[C@@H](CCCNC(=N)N)C(=O)N[C@@H](Cc2ccccc2)C(=O)N[C@H](C(=O)O)CSSC[C@@H](C(=O)NCC(=O)N[C@@H](CCSC)C(=O)N[C@@H](CO)C(=O)N[C@H](C(=O)N[C@@H](Cc2c[nH]c3ccccc23)C(=O)N[C@@H](CO)C(=O)O)[C@@H](C)O)NC1=O | 0.39 |  |  |
| CC[C@H](C)[C@@H]1NC(=O)[C@H](C)NC(=O)[C@H]([C@@H](C)CC)NC(=O)[C@H](CCC(N)=O)NC(=O)[C@H](C)NC(=O)[C@H](CCCNC(=N)N)NC(=O)[C@H](C(C)C)NC(=O)[C@H](CC(C)C)NC(=O)[C@H](CCC(=O)O)NC(=O)[C@H](CCCNC(=N)N)NC(=O)CNC(=O)[C@@H](NC(=O)[C@H](CC(C)C)NC(=O)[C@H](CCCCN)NC(=O)[C@@H](NC(=O)[C@@H](NC(=O)[C@H](CCC(=O)O)NC(=O)[C@H](CCC(=O)O)NC(=O)[C@H](CCSC)NC(=O)[C@H](Cc2c[nH]c3ccccc23)NC(=O)[C@H](CO)NC(=O)[C@H](C)N)C(C)C)[C@@H](C)CC)CSSC[C@@H]2NC(=O)[C@@H](NC(=O)[C@H](CCCCN)NC(=O)[C@H](CC(N)=O)NC(=O)[C@H](C)NC(=O)[C@H](CC(C)C)NC(=O)[C@H](C)NC(=O)[C@H](CO)NC(=O)[C@H](Cc3ccc(O)cc3)NC(=O)[C@H](CC(C)C)NC(=O)[C@@H](N)Cc3ccc(C(C)=NOCCNC(=O)[C@H](CCCCN)NC(=O)[C@H](CO)NC(=O)CNC(=O)CNC(=O)[C@H](CO)NC(=O)CNC(=O)CNC(=O)CC[C@H](NC(=O)CCCCCCCCCCCCC(=O)O)C(=O)O)cc3)CSSC[C@H](NC(=O)CNC(=O)[C@H](C(C)C)NC(=O)[C@H](Cc3c[nH]cn3)NC2=O)C(=O)N[C@@H]([C@@H](C)O)C(=O)N[C@@H](CCCCN)C(=O)N[C@@H](CCCNC(=N)N)C(=O)N[C@@H](CO)C(=O)N[C@@H](CC(C)C)C(=O)N[C@@H](C)C(=O)N[C@@H](CCCNC(=N)N)C(=O)N[C@@H](Cc2ccccc2)C(=O)N[C@H](C(=O)O)CSSC[C@@H](C(=O)NCC(=O)N[C@@H](CCSC)C(=O)N[C@@H](CO)C(=O)N[C@H](C(=O)N[C@@H](Cc2c[nH]c3ccccc23)C(=O)N[C@@H](CO)C(=O)O)[C@@H](C)O)NC1=O [AQ1-KSGGSGG-Glu^γ-C13-COOH] |  | 0.814 | 0.73 |
